Experimental data taken from EP0222670A1, “Dissolved composition of (benzo-1,2,4-thiadiazine)-1,1-dioxide” (SHISEIDO COMPANY LIMITED, priority 1985, dated 1987).

Assay: solubilities of the dioxide in various solvents at room temperature
Type: physicochemical
Parameters: key: completely and transparently dissolved; x: partially not dissolved, with presence of crystals
Description: The solubilities of 7-chloro-3-methyl-2H[benzo-l,2,4-thiadiazine]-l,l-dioxide in various solvents at room temperature are shown in Table l.
• *l: The dioxide is 7-chloro-3-methyl-2H-[benzo-l,2,4-thiadiazine]-l,l-dioxide • *2: Dipropylene glycol
In the Table, o: completely and transparently dissolved; x: partially not dissolved, with presence of crystals.

Measured: solubility of Dioxide in solvent

7-chloro-3-methyl-2H-[benzo-l,2,4-thiadiazine]-l,l-dioxide
o: solvent BA, Dioxide 0.2 % by weight | solvent BA, Dioxide 1.0 % by weight | solvent BA/IPA = 1/9, Dioxide 0.2 % by weight | solvent BA/IPA = 1/9, Dioxide 1.0 % by weight | solvent BA/IPA/aqueous alkali solution (pH = 10) = 1/3/6, Dioxide 0.2 % by weight | solvent BA/IPA/aqueous alkali solution (pH = 10) = 1/3/6, Dioxide 1.0 % by weight | solvent BA/IPA/aqueous alkali solution (pH = 10) = 1/3/6, Dioxide 2.0 % by weight | solvent BA/IPA/aqueous alkali solution (pH = 10) = 1/3/6, Dioxide 3.0 % by weight | solvent DMSO, Dioxide 0.2 % by weight | solvent DMSO, Dioxide 1.0 % by weight | solvent DMSO, Dioxide 2.0 % by weight | solvent DMSO, Dioxide 3.0 % by weight | solvent IPA, Dioxide 0.2 % by weight | solvent IPA/DPG = 1/1, Dioxide 0.2 % by weight | solvent IPA/DPG/aqueous alkali solution (pH = 10) = 2/1/1, Dioxide 0.2 % by weight | solvent IPA/DPG/aqueous alkali solution (pH = 10) = 2/1/1, Dioxide 1.0 % by weight | solvent IPA/DPG/aqueous alkali solution (pH = 10) = 2/1/1, Dioxide 2.0 % by weight | solvent IPA/DPG/aqueous alkali solution (pH = 10) = 2/1/1, Dioxide 3.0 % by weight
x: solvent BA, Dioxide 2.0 % by weight | solvent BA, Dioxide 3.0 % by weight | solvent BA/IPA = 1/9, Dioxide 2.0 % by weight | solvent BA/IPA = 1/9, Dioxide 3.0 % by weight | solvent DPG (Dipropylene glycol), Dioxide 0.2 % by weight | solvent DPG (Dipropylene glycol), Dioxide 1.0 % by weight | solvent DPG (Dipropylene glycol), Dioxide 2.0 % by weight | solvent DPG (Dipropylene glycol), Dioxide 3.0 % by weight | solvent Ethyl alcohol, Dioxide 0.2 % by weight | solvent Ethyl alcohol, Dioxide 1.0 % by weight | solvent Ethyl alcohol, Dioxide 2.0 % by weight | solvent Ethyl alcohol, Dioxide 3.0 % by weight | solvent IPA, Dioxide 1.0 % by weight | solvent IPA, Dioxide 2.0 % by weight | solvent IPA, Dioxide 3.0 % by weight | solvent IPA/DPG = 1/1, Dioxide 1.0 % by weight | solvent IPA/DPG = 1/1, Dioxide 2.0 % by weight | solvent IPA/DPG = 1/1, Dioxide 3.0 % by weight
